Data published in the supplement of paper PMC3974653.
Structures can show the parent of a compound that is named as a salt.

The molecules below were run on MTT (mouse pheochromocytoma) (assay: IC50 of cell viability (ATP content)). Settings: (24 or 48 h).
In short: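 Each well of a white 1536-well plate received 5 µl of MTT mouse pheochromocytoma cells at 200,000 cells/ml in DMEM containing 5% FBS and 1% horse serum. After overnight culture at 37°C, 5% CO2, cells were exposed for 24 or 48 hrs to 23 nl of library compound in DMSO, pinned at 8 final concentrations from 0.5 nM to 46 µM. CellTiter-Glo luminescence was read after 15 minutes, and IC50 was obtained from a four-parameter logistic fit of signals normalised to positive-control and DMSO wells.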

IC50 of cell viability | SMILES
> 46 µM | C=C1CCC2[C@](C)(CO)C(O)CC[C@]2(C)C1C/C=C1/C(=O)OCC1O (stereo partly drawn) [ANDROGRAPHOLIDE]
> 46 µM | Nc1nc(NC2CC2)c2ncn([C@H]3C=C[C@@H](CO)C3)c2n1 [ABACAVIR SULFATE]
> 46 µM | C[C@H]1C[C@H]2[C@@H]3CCC4=CC(=O)C=C[C@]4(C)[C@H]3C(=O)C[C@]2(C)[C@@]1(O)C(=O)CO [Meprednisone]
> 46 µM | Cc1cccc(Nc2ccccc2C(=O)O)c1C [Mefenamic acid]
> 46 µM | O=C([O-])c1cc2cc(Cc3cccnc3)ccc2o1.[Na+] [FUREGRELATE SODIUM]
> 46 µM | CN1CCN([C@@H](c2ccccc2)c2ccc(Cl)cc2)CC1 [(1-[(4-Chlorophenyl)phenyl-methyl]-4-methylpiperazine)]
> 46 µM | c1ccc2c(c1)OCC(CN1CCCCC1)O2 (stereo not drawn) [PIPEROXANUM]
> 46 µM | C#C[C@]1(O)CC[C@H]2[C@@H]3CCc4cc(OC)ccc4[C@H]3CC[C@@]21C [MESTRANOL]
> 46 µM | NCCS [Cysteamine]
> 46 µM | CCN[C@@H]1C[C@H](N)[C@H](O[C@@H]2O\C(=C/C[C@H]2N)CN)[C@@H](O)[C@@H]1O[C@@H]3OC[C@@](C)(O)[C@@H](NC)[C@H]3O [Netilmicin sulfate]
> 46 µM | CCCC(CCC)C(=O)OC1C[C@H]2CC[C@@H](C1)[N+]2(C)C (stereo partly drawn) [Anisotropine methyl bromide]
> 46 µM | CCCC(=O)O[C@@]1(CCC2[C@@H]3CCC/4=C/C(=O)CC[C@]4(C)C3C(O)C[C@@]12C)C(=O)CO (stereo partly drawn) [HYDROCORTISONE BUTYRATE]
> 46 µM | Cc1ccc(O)c([C@H](CCN(C(C)C)C(C)C)c2ccccc2)c1 [Tolterodina]
> 46 µM | COC(=O)[C@@H]1[C@H]2C[C@H]3c4[nH]c5cc(OC)ccc5c4CCN3C[C@@H]2C[C@@H](OC(=O)/C=C\c2cc(OC)c(OC)c(OC)c2)[C@@H]1OC [Rescinnamin]
> 46 µM | CCOC(=O)Nc1ccc(NCc2ccc(F)cc2)nc1N [Flupirtine maleate salt]
> 46 µM | CC(=O)Oc1c(C)c(C)c2c(c1C)CC[C@@](C)(CCC[C@H](C)CCC[C@H](C)CCCC(C)C)O2 [Vitamin E acetate]
> 46 µM | CC(C)NCC(O)COc1cccc2[nH]ccc12 (stereo not drawn) [PINDOLOL]
> 46 µM | N[C@H]([C@@H]1C\C(=N/O1)Cl)C(O)=O [ACIVICIN]
> 46 µM | CC(C)NCC(O)c1ccc2ccccc2c1 (stereo not drawn) [PRONETHALOL]
> 46 µM | COc1ccc2c(=O)c(C)c(-c3ccccc3)oc2c1CN(C)C [DIMEFLINE HYDROCHLORIDE]
> 46 µM | O=C(OCCOCCO)c1ccccc1Nc1cccc(C(F)(F)F)c1 [Etofenamate]
> 46 µM | Cc1c(Cl)cccc1Nc1ccccc1C(=O)O [TOLFENAMIC ACID]

SMILES | IC50 of cell viability
CCC(=O)OC1(c2ccccc2)CCN(C)CC1 [1-Methyl-4-phenyl-4-propionoxypiperidine] | > 46 µM
CNC(C)Cc1ccc2c(c1)OCO2 (stereo not drawn) [(?)-3,4-Methylenedioxymethamphetamine] | > 46 µM
CCOC(=O)c1ccc(OC(=O)CCCCCNC(=N)N)cc1.C[S+](=O)([O-])O [Gabexate mesilate] | > 46 µM
CCCCCCCCCC(CC)c1ccc(S(=O)(=O)[O-])cc1.[Na+] (stereo not drawn) [Dodecylbenzenesulfonic acid, sodium salt] | > 46 µM
C[C@H](N)[C@@H](O)c1ccccc1 [Phenylpropanolamine hydrochloride] | > 46 µM
CCOC(=O)c1ccccc1C(=O)OCC [Diethyl phthalate] | > 46 µM
